In US20230124969A1, “OPHTHALMIC FORMULATION COMPRISING N-[5-(AMINOSULFONYL)-4-METHYL-1,3- THIAZOL-2-YL]-N-METHYL-2-[4-(2-PYRIDINYL)PHENYL]ACETAMIDE HEMIHYDRATE” (AiCuris GmbH & Co. KG, priority 2020, published 2023):
Where two headings read alike, the source gives them in different places.

Experiments:
Assay type in all cases: physicochemical
[1] = Sterile filtration / filter compatibility: HPLC assay before and after filtration; settings: for assay data before and after filtration: Example 3, 0.05 mg/mL DS, PEG200 stock diluted in GenTeal tears
Method: • Dilute 500 µL of each sample with 500 µL ACN/MeOH/H2O ratio 25:25:50 + 1% HAc (1:2) • Mix it 5 s by vortexing
• Dilute 250 µL of each sample with 730 µL ACN/MeOH/H2O ratio 25:25:50 + 1% HAc and add 20 µL ACN/DMSO 4:1 (1:4) • Mix it 5 s by vortexing
(§1) An amount of 1.5 mL stock solution was diluted with 28.5 mL of the respective artificial tears solution (either GenTeal® Tears or Thera® Tears or Visine® tears) in a beaker and stirred for 2 min with a magnet stirrer. The pH value was determined and samples were taken before and after sterile filtration. The solutions were filtered through CA (cellulose acetate) 0.22 µm filter system. The content of the beaker was withdrawn and respectively 14 mL of the prepared formulation were added to two empty 50 mL tubes. In addition, one empty 2 mL tube was provided and 1.5 mL of the prepared formulation was added to the 2 mL tube. The samples were stored at RT and at a temperature in the range of from 2-8° C. over 5 weeks.
(§2) The testing was repeated one time to have samples in duplicate (n=2). An amount of 6 mL of the ophthalmic formulation was withdrawn with a 10 mL syringe. An amount of 1 mL was used to determine the final concentration before filtration. The syringe was connected with a PA 0.2 µm filter via Luer Lok and the solution was filtered. Another sample was taken to determine the final concentration after filtration.
The filter was then disconnected from the syringe and an amount of 3 mL DMSO was withdrawn with the used 10 mL syringe. Then, the syringe was shaken smoothly. An amount of 1 mL was used to determine the final concentration after rinsing. The syringe was again connected to the used PA 0.2 µm filter via Luer Lok the DMSO was filtered. A sample was taken to determine the final concentration after washing.
This protocol was repeated for all tested filters: PA / Nylon, PALE / Nylon, PTFE, PVDF, CM, CA, RC, PP, PES. Each filter contained a filter material with a pore size of 0.2 µm and of 0.45 µm.
as §2, with “repeated” for “repeated one time”, “triplicate (n=3).” for “duplicate (n=2).”, “the” for “a PA 0.2 µm”
The filter was disconnected from the syringe and an amount of 2 mL DMSO was withdrawn with a fresh 10 mL syringe. The syringe was again connected to the used filter via Luer Lok and the DMSO was filtered. […]
(§3) The amount of hydrochloric acid was added as determined in the pre-testing to adjust the pH to 6.0 and a sample was taken to determine the final concentration before filtration. […]

[2] = Preparation of 1 mg/mL PEG400 stock solution and ophthalmic formulation with different drug substances (experiments 8-10); settings: for suitability as drug substance for preparation of the ophthalmic formulation: three tested drug substances, experiments 1-10
Method: All liquids and the DS were equilibrated to ≥ 20° C. An amount of 20 ml of PEG 400 was added to a 50 mL tube and 20 mg of DS were dissolved therein. The solution was mixed by vortexing the tube for 5 s and the tube was shaken until the DS was dissolved.
To study whether Pritelivir free base hemihydrate can be replaced with Pritelivir mesylate, Experiment 8 was repeated with Pritelivir mesylate monohydrate as DS.
The preparation protocol of Example 8 was followed also for the ophthalmic formulation containing Pritelivir mesylate monohydrate as drug substance.
To study whether Pritelivir free base hemihydrate can be replaced with Pritelivir maleate, Experiment 8 was repeated with Pritelivir maleate as DS.

[3] = In-use stability of ophthalmic formulations stored at room temperature and 2-8 °C
Method: To study the in-use stability over 5 weeks at room temperature (RT) and at a temperature in the range of from 2° C. - 8° C., stock solutions with a concentration of 1.0 mg/mL of DS were prepared in PEG200 and in PEG400. The different stock solutions were diluted in 3 different compositions of artificial tears to a final concentration of 0.05 mg DS per mL ophthalmic formulation.
as §1, with “weeks. […]” for “weeks.”
To study the impact of the pH value on the tendency of the ophthalmic formulation to degrade and precipitate 3 different compositions of artificial tears were adjusted to pH 4.0, 5.0 and 6.0. A stock solution of Pritelivir free base hemihydrate in PEG400 at a concentration of 1.0 mg/mL was prepared. The stock solutions were diluted in the pH adjusted artificial tears at a Pritelivir free base hemihydrate concentration of 0.05 mg/mL and filtered through a RC 0.2 µm sterile filter. It turned out to be preferable to carry out the dilution step for each sample one after the other to keep the time before the filtration step short.
All samples were prepared as triplicates. One sample was prepared after the other to keep the preparation time short and to minimize the risk of precipitation. The stock solution was diluted with pH adjusted artificial tears solution in a tube and gently mixed. A sample was taken to determine the final concentration. An amount of 20 mL of the tube was withdrawn with a 20 mL syringe. Then, the syringe was connected to the RC […] filter via Luer Lok and the solution was filtered in two portions of 10 mL each into two 50 mL tube. Another sample was taken to determine the final concentration after filtration.
The samples were stored at room temperature and at a temperature in the range of from 2° C.-8° C. over 4 weeks.
To determine an acceptable pH value for ophthalmic use, a stock solution of Pritelivir free base hemihydrate in PEG400 was prepared at a concentration 1.0 mg/mL. […]
as §3

[4] = Pre-test: PEG 200 stock solutions diluted in GenTeal Tears, visual check for precipitation (Example 1); settings: stock solution in PEG 200 diluted with GenTeal tears, visual inspection
Method: In order to prepare the new ophthalmic formulation the drug substance concentrations of both i) stock solution and ii) drug product which is administered to the patient need to be determined. For that propose, a stock solution with different concentrations of Pritelivir free base hemihydrate in PEG 200 was diluted in GenTeal® tears and the precipitation was checked over time. All liquids and the DS were equilibrated to ≥ 20° C. Seven 10 mL tubes were provided. In each of these tubes, 5 ml of PEG 200 were added and the required amount of DS was dissolved therein to provide the following stock solutions: 30 mg/mL, 25 mg/mL, 20 mg/mL, 10 mg/mL, 5 mg/mL, 1 mg/mL, 0.05 mg/mL. The solutions were mixed by vortexing the tubes for 5 s and the tubes were shaken until the DS was dissolved. The stock solutions were diluted with GenTeal® tears and the pH value was measured. After that the samples were checked for precipitation by visual inspection.

Row | Compound | assay level after filtration ([1]; Comparative Example 1, protocol of Example 8, RC 0.2 µm filter) | solubility in PEG400 / preparation of stock solution [2] | precipitation ([2]; Comparative Example 1, protocol of Example 8 (PEG400, Visine Tears, 0.1 M HCl)) | suitability as drug substance for preparation of the ophthalmic formulation [2] | solubility in PEG400 / preparation of stock solution ([2]; at a concentration of 1 mg/mL) | impurities on storage ([3]; Example 6, PEG400 stock diluted with GenTeal Tears, 0.05 mg/mL, after 1 week at room temperature) | time over which samples were stable ([3]; Example 6, PEG400 stock diluted with GenTeal Tears, 0.05 mg/mL, stored at 2-8° C.) [week] | stability in most artificial tears solutions ([3]; pH 4.0) | stability for an ophthalmic formulation ([3]; pH between 6.0 and 7.0, formulation contains glycerin, hypromellose and polyethylene glycol 400) | assay data before and after filtration ([1]; filter material PFTE 0.2 µm) | assay data before and after filtration ([1]; filter material RC 0.2 µm) | assay content before and after filtration ([1]; Example 6, 1 mg/mL PEG400 stock diluted with GenTeal Tears to 0.05 mg/mL, RC 0.2 µm filter, six samples) | drug load of ophthalmic formulation obtainable without any visually detectable precipitation [4] [mg/mL]
1 | N-[5-(amino-sulfonyl)-4-methyl-1,3-thiazol-2-yl]-N-methyl-2-[4-(2-pyridinyl)phenyl] acetamide mesylate monohydrate [Pritelvir mesylate monohydrate] | decreased significantly | not soluble | Precipitation was observed | insolubility and precipitation problems | – | – | – | – | – | – | – | – | –
2 | Cc1nc(N(C)C(=O)Cc2ccc(-c3ccccn3)cc2)sc1S(N)(=O)=O.O=C(O)/C=C\C(=O)O [Pritelivir maleate, N-[5-(aminosulfonyl)-4-methyl-1,3-thiazol-2-yl]-N-methyl-2-[4-(2-pyridinyl)phenyl]acetamide maleate] | – | – | – | insolubility and precipitation problems | not possible | – | – | – | – | – | – | – | –
3 | Cc1nc(N(C)C(=O)Cc2ccc(-c3ccccn3)cc2)sc1S(N)(=O)=O [Pritelivir free base hemihydrate, N-[5-(aminosulfonyl)-4-methyl-1,3-thiazol-2-yl]-N-methyl-2-[4-(2-pyridinyl)phenyl]acetamide hemihydrate] | – | – | – | suitable | – | increase of impurities | 1 | not stable | sufficiently stable | identical values | identical values | comparable | 24
